Each structure is given as a SMILES string.

The subject of the assay is HEK293 cells. The assay is described as follows: Preliminary screening as DNA vectors, GFP transfection of HEK293 cells. In kind it is cell-based. As to conditions: amino lipid/DOPE liposome with 75 ng plasmid DNA (psin-EGFP-IRES-Puro); number of GFP-expressing cells divided by total nuclei (Hoechst). As to the method: Cell line: HEK293 cells (ATCC CRL-1573™)
Medium: DMEM supplemented with 10% fetal bovine serum (Invitrogen)
Mode of screening: cell transfection on 96-well plates
Detection (readout): percentage of the number of GFP fluorescent cells relative to the total number of cells (the total number of cells was measured using nucleus dye Hoechst—see FIG. 2). Lipofectamine2000 (Invitrogen) was used as positive control, according to the manufacturer's instructions.
Method: an 8-channel pipette was used for sample addition. The contents shown were for a single well of a 96-well flat plate.
1. The compound (0.01 mmol) prepared in Example 1 was dissolved in 1 mL of anhydrous ethanol. After ultrasonically dissolved, 10 μL of the resultant amino lipid solution in ethanol was taken and mixed with 5 μL of DOPE solution in ethanol (0.01 m), and then to the obtained mixture was added 35 μL of 0.2M sodium acetate buffer (pH 5.6), and 50 μL of liposome solution was prepared by vortex at a constant rotating speed for 30 s. 4 μL was taken from the 50 μL liposome solution and added to 46 μL of 0.02M sodium acetate buffer (pH 5.6), and the final liposome solution was formed by vortex at a constant rotating speed for 30 s. 5 μL was taken from the final liposome solution and mixed with 75 ng plasmid DNA (psin-EGFP-IRES-Puro, Clontech) dissolved in 5 μL of 0.02 M sodium acetate buffer, and was allowed to stay at room temperature for 30 min to form a lipid/DNA transfection complex.
2. 10 μL of the lipid/DNA transfection complex was incubated at room temperature for 30 min, followed by addition of 90 μL of fresh resuspended cells (3-5×10^4 cells) and mixing with a pipette. 100 μL of cells+lipid/DNA complex was transferred to separate wells of a 96-well culture plate immediately, and placed in an incubator containing 5% CO2 at 37° C.
3. Hoechst33258 (Invitrogen) was added at a final concentration of 0.2 μg/mL to the cells 20 to 24 hours after initial cell transfection, and cultured in darkness at 37° C. for 15 min. Afterwards, the cells were washed once with a PBS solution, and then added with medium for culture for 20 to 24 h.
4. The cells were placed in a high-throughput confocal microscope (Molecular Devices ImageXpress), and four visual fields of the image of the cells were captured for each well, and images at three laser wavelengths were captured for each sample: bright field images of cells (FIG. 2(a) and FIG. 2(b)), Hoechst-staining images showing total nuclei (FIG. 2(c) and FIG. 2(d)) and GFP images showing success in transfection with the plasmid DNA and the expression of GFP (FIG. 2(e) and FIG. 2(f)). MetaXpress software was used to separately count the cells in the Hoechst-staining images and GFP images, and then the number of cells expressing GFP was divided by the total number of nuclei to give the absolute cell transfection efficiency. The absolute transfection efficiency was calculated as follows: […]

`CCCCCCCSc1nc(NCCN(C)C)nc(SCCCCCC)n1` [S6S7 D1]: the “Absolute DNA transfection efficiency in HEK293 cells” value (shortened to “Absolute DNA transfection efficiency”) stood at 0.5%.

As to `CCCCCCCSc1nc(NCCN2CCOCC2)nc(SCCCCCC)n1` [S6S7 D2], the “Absolute DNA transfection efficiency” value amounted to 1.2%.

In the case of `CCCCCCCSc1nc(NCCN2CCCC2)nc(SCCCCCC)n1` [S6S7 D3], the “Absolute DNA transfection efficiency” value is 1.4%.

In the case of `CCCCCCCSc1nc(NCCN2CCCCC2)nc(SCCCCCC)n1` [S6S7 D4], the “Absolute DNA transfection efficiency” value turned out to be 2.0%.

With `CCCCCCCSc1nc(NCCN2CCN(C)CC2)nc(SCCCCCC)n1` [S6S7 D5], the “Absolute DNA transfection efficiency” value is on record as 5.7%.

In the case of `CCCCCCCSc1nc(NCCCN(C)C)nc(SCCCCCC)n1` [S6S7 D6], the “Absolute DNA transfection efficiency” value amounted to 6.9%.

`CCCCCCCSc1nc(NCCN(CC)CC)nc(SCCCCCC)n1` [S6S7 D7]: the “Absolute DNA transfection efficiency” value was determined as 22.2%.

`CCCCCCCSc1nc(NCCCN2CCOCC2)nc(SCCCCCC)n1` [S6S7 D8]: the “Absolute DNA transfection efficiency” value is listed as 0.0%.

Turning to `CCCCCCCSc1nc(NCCCN2CCN(C)CC2)nc(SCCCCCC)n1` [S6S7 D9], the “Absolute DNA transfection efficiency” value came to 7.5%.

In the case of `CCCCCCCSc1nc(NCC2CCN(C)CC2)nc(SCCCCCC)n1` [S6S7 D10], the “Absolute DNA transfection efficiency” value turned out to be 21.6%.

Regarding `CCCCCCCCSc1nc(NCCN(C)C)nc(SCCCCCC)n1` [S6S8 D1], the “Absolute DNA transfection efficiency” value is 1.9%.

For `CCCCCCCCSc1nc(NCCN2CCOCC2)nc(SCCCCCC)n1` [S6S8 D2], the “Absolute DNA transfection efficiency” value is 2.5%.

Regarding `CCCCCCCCSc1nc(NCCN2CCCC2)nc(SCCCCCC)n1` [S6S8 D3], the “Absolute DNA transfection efficiency” value is given as 2.8%.

Consider `CCCCCCCCSc1nc(NCCN2CCCCC2)nc(SCCCCCC)n1` [S6S8 D4], for which the “Absolute DNA transfection efficiency” value turned out to be 1.3%.

As to `CCCCCCCCSc1nc(NCCN2CCN(C)CC2)nc(SCCCCCC)n1` [S6S8 D5], the “Absolute DNA transfection efficiency” value is on record as 15.3%.

For `CCCCCCCCSc1nc(NCCCN(C)C)nc(SCCCCCC)n1` [S6S8 D6], the “Absolute DNA transfection efficiency” value worked out at 7.4%.

For `CCCCCCCCSc1nc(NCCN(CC)CC)nc(SCCCCCC)n1` [S6S8 D7], the “Absolute DNA transfection efficiency” value was determined as 15.0%.

Consider `CCCCCCCCSc1nc(NCCCN2CCOCC2)nc(SCCCCCC)n1` [S6S8 D8], for which the “Absolute DNA transfection efficiency” value came to 0.6%.

As to `CCCCCCCCSc1nc(NCCCN2CCN(C)CC2)nc(SCCCCCC)n1` [S6S8 D9], the “Absolute DNA transfection efficiency” value turned out to be 10.0%.

Consider `CCCCCCCCSc1nc(NCC2CCN(C)CC2)nc(SCCCCCC)n1` [S6S8 D10], for which the “Absolute DNA transfection efficiency” value is recorded as 24.1%.

As for `CCCCCCCCCSc1nc(NCCN(C)C)nc(SCCCCCC)n1` [S6S9 D1], the “Absolute DNA transfection efficiency” value is on record as 2.6%.

`CCCCCCCCCSc1nc(NCCN2CCOCC2)nc(SCCCCCC)n1` [S6S9 D2]: the “Absolute DNA transfection efficiency” value came out at 9.1%.

As for `CCCCCCCCCSc1nc(NCCN2CCCC2)nc(SCCCCCC)n1` [S6S9 D3], the “Absolute DNA transfection efficiency” value is on record as 6.9%.

Take `CCCCCCCCCSc1nc(NCCN2CCCCC2)nc(SCCCCCC)n1` [S6S9 D4]: the “Absolute DNA transfection efficiency” value is 1.8%.

As for `CCCCCCCCCSc1nc(NCCN2CCN(C)CC2)nc(SCCCCCC)n1` [S6S9 D5], the “Absolute DNA transfection efficiency” value worked out at 13.7%.

`CCCCCCCCCSc1nc(NCCCN(C)C)nc(SCCCCCC)n1` [S6S9 D6]: the “Absolute DNA transfection efficiency” value is on record as 7.1%.

On to `CCCCCCCCCSc1nc(NCCN(CC)CC)nc(SCCCCCC)n1` [S6S9 D7], for which the “Absolute DNA transfection efficiency” value is given as 10.2%.

Turning to `CCCCCCCCCSc1nc(NCCCN2CCOCC2)nc(SCCCCCC)n1` [S6S9 D8], the “Absolute DNA transfection efficiency” value is reported as 2.0%.

For the compound `CCCCCCCCCSc1nc(NCCCN2CCN(C)CC2)nc(SCCCCCC)n1` [S6S9 D9], the “Absolute DNA transfection efficiency” value turned out to be 8.4%.

For the compound `CCCCCCCCCSc1nc(NCC2CCN(C)CC2)nc(SCCCCCC)n1` [S6S9 D10], the “Absolute DNA transfection efficiency” value turned out to be 18.0%.

The values above are taken from patent publication US20230123334A1, “AMINO LIPID COMPOUND, PREPARATION METHOD THEREFOR, AND APPLICATION THEREOF” (SHENZHEN SHENXIN BIOTECHNOLOGY CO., LTD., priority 2020, published 2023).
